# Measurements taken from patent US20250042885A1, “SOLID STATE FORMS OF LOTILANER AND PROCESS FOR PREPARATION THEREOF” (TEVA PHARMACEUTICALS INTERNATIONAL GMBH, priority 2021, published 2025).
# Assays:
# Assay type in all cases: physicochemical
# [1] = Storage stability at different temperatures and/or relative humidities (XRPD)
# Description: (§1) Prior to analysis, the samples were gently ground by means of mortar and pestle in order to obtain a fine powder. The ground sample was adjusted into a cavity of the sample holder and the surface of the sample was smoothed by means of a cover glass.
# (§2) • Scan range: 2-40 degrees 2-theta; • Scan mode: continuous; • Step size: 0.05 degrees; • Time per step: 0.5 s; • Sample spin: 30 rpm; • Sample holder: PMMA specimen holder ring with silicon low background holder.
# Samples of Lotilaner forms were subjected to conditions of different temperatures and/or relative humidities. XRPD analysis was performed on the samples after 1, 3 or 6 months.
# [2] = Storage stability at different relative humidities (XRPD); conditions: for at least 7 days; conclusion from Table 1
# Description: as §1, §2
# Samples of Lotilaner forms were subjected to conditions of different relative humidities at ambient temperature. XRPD analysis was performed on the samples after 7 days.
# [3] = Grinding experiments (strong grinding, solvent drop grinding; XRPD)
# Description: (§3) X-ray diffraction was performed on X-Ray powder diffractometer Bruker D8 Advance; CuK_radiation (λ=1.5418 Å); Lynx eye detector; laboratory temperature 22-25° C.; PMMA specimen holder ring. Prior to analysis, the samples were gently ground by means of mortar and pestle in order to obtain a fine powder. The ground sample was adjusted into a cavity of the sample holder and the surface of the sample was smoothed by means of a cover glass.
# as §2
# Samples of Lotilaner forms were subjected to strong grinding, and to solvent drop grinding in water, ethanol or isopropanol. Grinding was carried out on the samples alone, or in the presence of ethanol, water or isopropanol. In these experiments, about 20 mg of the sample is placed in a mortar and ground with a pestle for 2 minutes. The solvent, when used, as added to the crystalline material before grinding, in a volume of 10 microlitres. XRPD analysis performed on each of the samples after the grinding experiment, confirmed no change in the starting material (Table 3): […]
# [4] = Thermal stability (heating, XRPD)
# Description: as §3, §2
# Samples of Lotilaner forms were subjected to heating up to 100° C. for 30 minutes. XRPD analysis of the sample confirmed no change in the starting material (Table 4): […]
# [5] = Stability to compression (XRPD)
# Description: as §1, §2
# Samples of Lotilaner forms were subjected to pressures of 2 tons for one minute. XRPD analysis was performed on the samples after 1 minute.
smiles,measurement,setting,value
"Cc1cc(C2=NO[C@@](c3cc(Cl)c(Cl)c(Cl)c3)(C(F)(F)F)C2)sc1C(=O)NCC(=O)NCC(F)(F)F [Form LT5 Lotilaner, 3-Methyl-N-[2-oxo-2-(2,2,2-trifluoroethylamino)ethyl]-5-[(5S)-5-(3,4,5-trichlorophenyl)-5-(trifluoromethyl)-4H-1,2-oxazol-3-yl]thiophene-2-carboxamide]","XRPD analysis after storage, 2-8° C.",[1]; 1 month (1 m),No change
same,"XRPD analysis after storage, 25° C., 60% RH",[1]; 1 month (1 m),No change
same,"XRPD analysis after storage, 40° C., 75% RH",[1]; 1 month (1 m),No change
"Cc1cc(C2=NO[C@@](c3cc(Cl)c(Cl)c(Cl)c3)(C(F)(F)F)C2)sc1C(=O)NCC(=O)NCC(F)(F)F [Form LT4 Lotilaner, 3-Methyl-N-[2-oxo-2-(2,2,2-trifluoroethylamino)ethyl]-5-[(5S)-5-(3,4,5-trichlorophenyl)-5-(trifluoromethyl)-4H-1,2-oxazol-3-yl]thiophene-2-carboxamide]","XRPD analysis after storage, 2-8° C.",[1]; 3 months (3 m),No change
same,"XRPD analysis after storage, 25° C., 60% RH",[1]; 3 months (3 m),No change
same,"XRPD analysis after storage, 40° C., 75% RH",[1]; 3 months (3 m),No change
"Cc1cc(C2=NO[C@@](c3cc(Cl)c(Cl)c(Cl)c3)(C(F)(F)F)C2)sc1C(=O)NCC(=O)NCC(F)(F)F [Form LT1 Lotilaner, 3-Methyl-N-[2-oxo-2-(2,2,2-trifluoroethylamino)ethyl]-5-[(5S)-5-(3,4,5-trichlorophenyl)-5-(trifluoromethyl)-4H-1,2-oxazol-3-yl]thiophene-2-carboxamide]",Stability after exposure to high and low relative humidity,[2],stable
same,"XRPD analysis after storage, 2-8° C.",[1]; 6 months (6 m),No change
same,"XRPD analysis after storage, 25° C., 60% RH",[1]; 6 months (6 m),No change
same,"XRPD analysis after storage, 40° C., 75% RH",[1]; 6 months (6 m),No change
same,Storage stability,[1]; conclusion from Table 2,good storage stability
same,XRPD analysis after strong grinding,"[3]; about 20 mg ground in mortar with pestle for 2 minutes, no solvent",No change
same,Resistance to polymorphic changes on grinding,[3]; conclusion from Table 3,resistant to polymorphic changes
same,XRPD analysis after solvent-drop grinding (ethanol),"[3]; ground 2 minutes, 10 microlitres ethanol",No change
same,XRPD analysis after solvent-drop grinding (isopropanol),"[3]; ground 2 minutes, 10 microlitres isopropanol",No change
same,XRPD analysis after solvent-drop grinding (water),"[3]; ground 2 minutes, 10 microlitres water",No change
same,"XRPD analysis after heating 100° C., 30 minutes",[4],No change
same,"XRPD analysis results, pressure (2 tons)",[5]; 2 tons for one minute,No change
same,Stability under high pressure conditions,[5]; conclusion from Table 5,stable
